Earlier results on five substances are cited in patent US20220184026A1, “COMPOSITIONS OF FULVIC ACID AND CANNABINOID AND USES THEREOF” (Omni Bioceutical Innovations, Inc., priority 2019, published 2022).

Where two headings read alike, the source gives them in different places.

In this series the test system is chronic wounds. The arrangement: key: N.S. = not statistically significant.

As for human growth hormone [HGH], the Results entry (Rasmussen et al., venous wounds (n=37), 1 IU/cm^2 per week) is on record as “N.S”. For interleukin-1B [IL-1B], the Results entry (Robson et al., pressure wounds (n=25), 0.01, 0.1, and 1 μg/cm^2 daily) was “N.S”. In the case of basic fibroblast growth factor [bFGF], the Results entry is, setting by setting: (Richard et al., diabetic wounds (n=17), 0.25 to 0.75 μg/cm^2 daily) “N.S”; (Robson et al., pressure wounds (n=50), 1, 5, and 10 μg/cm^2) “N.S”. As to “granulocyte-macrophage colony-stimulating factor [GM-CSF]”, under “da Costa et al., venous + arterial wounds (n=25), 400 μg injected once around the wound”, the Results result is “N.S”. On to “epidermal growth factor (NSDSECPLSHDGYCLHDGVCMYIEALDKYACNCVVGYIGERCQYRDLKWWELR; not fully specified; Epidermal growth factor; UniProt P01133 971-1023, looked up) [EGF]”, for which the Results entry (Falanga et al., venous wounds (n=44), 10 μg/mL twice per day) is reported as “N.S”.
